The source of these data is publication PMC7442270, “Phase 3 Trial of a Small-volume Subcutaneous 6-Month Duration Leuprolide Acetate Treatment for Central Precocious Puberty” (The Journal of Clinical Endocrinology and Metabolism, 2020).

This data set can be described thus: clinical. More on the design: species or system children with CPP. The conditions noted are these: human, in vivo, sc, 45 mg. The procedure: All samples were processed by a central laboratory (Syneos Health [formerly […] Health Clinique Inc.], Canada). A validated bioanalytical LC-MS/MS method with an LLOD of 0.025 ng/mL was used to measure serum leuprolide concentrations.

By Cmax is commonly meant the highest concentration seen after dosing. In general, AUC refers to the area under the concentration-time curve, a measure of exposure. The low end stands for less exposure, the high end for more exposure. For orientation: Tmax means the time at which the peak concentration occurs. On to `CCNC(=O)[C@@H]1CCCN1C(=O)[C@H](CCCNC(=N)N)NC(=O)[C@H](CC(C)C)NC(=O)[C@@H](CC(C)C)NC(=O)[C@H](Cc1ccc(O)cc1)NC(=O)[C@H](CO)NC(=O)[C@H](Cc1c[nH]c2ccccc12)NC(=O)[C@H](Cc1c[nH]cn1)NC(=O)[C@@H]1CCC(=O)N1` [leuprolide], for which the Cmax was 212 ng/mL and the level at 672 h stood at 0.63 ng/mL. The AUC (burst phase) was 938 ng·h/mL. Further, the exposure (AUC) (plateau phase) is 42300 ng·h/mL. Moreover, the Tmax (T max, burst phase (time at which the Cmax is observed)) came to 3.7 h. Besides, the Tmax (Time after injection at which leuprolide levels peaked) is 4 h.
